Biological target: T1, ERR1 (also known as ERR-α or ERR-1) (Homo sapiens, UniProt P11474)
T1 sequence (P11474 193-421 limits assumed): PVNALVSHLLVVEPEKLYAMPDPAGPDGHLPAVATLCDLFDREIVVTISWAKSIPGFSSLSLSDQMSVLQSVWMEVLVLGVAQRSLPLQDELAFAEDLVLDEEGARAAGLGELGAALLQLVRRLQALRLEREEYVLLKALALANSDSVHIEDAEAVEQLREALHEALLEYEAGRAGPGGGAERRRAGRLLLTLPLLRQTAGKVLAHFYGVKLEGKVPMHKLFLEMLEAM
Assay: TR-FRET assay (disruption of co-activator peptide binding)
Format: biochemical
Details: 6His-tagged ERR1LBD, GST-hSRC2 co-activator peptide; average of 3 independent experiments
Procedure: Time-Resolved Fluorescence Resonance Energy Transfer (TR-FRET) experiments were performed to examine the functional response of ERR1 (also known as ERR-α or ERR-1) ligands. The TR-FRET assay described herein relied on the conformation of ERR1 for binding to a co-activator peptide: when a test compound binds to ERR1 and alters its conformation, it can disrupt the binding of the co-activator peptide. The components of this homogeneous secondary assay included: the ^6His-tagged-ERR1LBD, a GST-labeled-hSRC2 co-activator polypeptide and a fluorescent donor/acceptor pair from CIS bio international htrf/bioassays (Bedford, Mass.) using both an α-GST Europium Cryptate (Eu) label and an α^6His-XL665 (allophycocyanin) fluorophore.
For TR-FRET measurements, the reaction was buffered in 25 mM Tris pH 8, 2.5 mM Hepes, 20 mM KCl, 1 mM DTT, and 0.05 mg/mL BSA (-lipids). The final concentrations of reagents were 6 nM of ERR1LBD, 6 nM GST-SRC-2 peptide, 30 nM Eu cryptate, and 7.5 nM XL665. Reactions were allowed to reach equilibrium at 25° C. for 4-18 hours before collecting data on the Analyst from LJL Biosystems (Molecular Devices Sunnyvale, Calif.). As a time-resolved method, the samples were excited at […] and emission was collected for 1 ms at both 615 and 665 nm with delays of 400 and 75 μs, respectively. Dose response curves were fitted using a hyperbolic equation and the data reported is the average of 3 independent experiments.

SMILES	EC50 [nM]
C=CCN(C)C1=NC(=O)/C(=C/c2ccc3c(cnn3Cc3ccc(Cl)cc3C(F)(F)F)c2)S1 [Compound 39, 2-(Allyl-methyl-amino)-5-[1-(4-chloro-2-trifluoromethyl-benzyl)-1H-indazol-5-ylmethylene]-thiazol-4-one]	25
COCCN(CCOC)C1=NC(=O)/C(=C/c2ccc3c(cnn3Cc3ccc(Cl)cc3C(F)(F)F)c2)S1 [Compound 14, 2-[Bis-(2-methoxy-ethyl)-amino]-5-[1-(4-chloro-2-trifluoromethyl-benzyl)-1H-indazol-5-ylmethylene]-thiazol-4-one]	3.3
COC[C@@H]1C[C@H](N(C)C2=NC(=O)/C(=C/c3ccc4c(cnn4Cc4ccc(Cl)cc4C(F)(F)F)c3)S2)CN1 (stereo in doubt) [Compound 41, 5-[1-(4-Chloro-2-trifluoromethyl-benzyl)-1H-indazol-5-ylmethylene]-2-[(5-methoxymethyl-pyrrolidin-3-yl)-methyl-amino]-thiazol-4-one]	24
CN1CCC(CN(C)C2=NC(=O)/C(=C/c3ccc4c(cnn4Cc4ccc(Cl)cc4C(F)(F)F)c3)S2)C1 (stereo not drawn) [Compound 34, 5-[1-(4-Chloro-2-trifluoromethyl-benzyl)-1H-indazol-5-ylmethylene]-2-[methyl-(1-methyl-pyrrolidin-3-ylmethyl)-amino]-thiazol-4-one]	17
CN(C)CCN(C)C1=NC(=O)/C(=C/c2ccc3c(cnn3Cc3ccc(C(F)(F)F)cc3C(F)(F)F)c2)S1 [Compound 2, 5-[1-(2,4-Bis-trifluoromethyl-benzyl)-1H-indazol-5-ylmethylene]-2-[(2-dimethylamino-ethyl)-methyl-amino]-thiazol-4-one]	7
COC[C@@H]1CC(N(C)C2=NC(=O)/C(=C/c3ccc4c(cnn4Cc4ccc(C(F)(F)F)cc4C(F)(F)F)c3)S2)CN1 (stereo partly drawn) [Compound 40, 5-[1-(2,4-Bis-trifluoromethyl-benzyl)-1H-indazol-5-ylmethylene]-2-[(5-methoxymethyl-pyrrolidin-3-yl)-methyl-amino]-thiazol-4-one]	21
COCCN(CCOC)C1=NC(=O)/C(=C/c2ccc3c(cnn3Cc3ccc(OC)cc3C(F)(F)F)c2)S1 [Compound 9, 2-[Bis-(2-methoxy-ethyl)-amino]-5-[1-(4-methoxy-2-trifluoromethyl-benzyl)-1H-indazol-5-ylmethylene]-thiazol-4-one]	4.1
O=C1N=C(N(CCO)CCO)S/C1=C\c1ccc2c(cnn2Cc2ncc(C(F)(F)F)cc2Cl)c1 [Compound 12, 2-[Bis-(2-hydroxy-ethyl)-amino]-5-[1-(3-chloro-5-trifluoromethyl-pyridin-2-ylmethyl)-1H-indazol-5-ylmethylene]-thiazol-4-one]	3900
CN(CCN1CCOCC1)C1=NC(=O)/C(=C/c2ccc3c(cnn3Cc3ccc(Cl)cc3C(F)(F)F)c2)S1 [Compound 26, 5-[1-(4-Chloro-2-trifluoromethyl-benzyl)-1H-indazol-5-ylmethylene]-2-[methyl-(2-morpholin-4-yl-ethyl)-amino]-thiazol-4-one]	21
CN(C1=NC(=O)/C(=C/c2ccc3c(cnn3Cc3ccc(C(F)(F)F)cc3C(F)(F)F)c2)S1)C1CN[C@H](CO)C1 (stereo partly drawn) [Compound 43, 5-[1-(2,4-Bis-trifluoromethyl-benzyl)-1H-indazol-5-ylmethylene]-2-[(5-hydroxymethyl-pyrrolidin-3-yl)-methyl-amino]-thiazol-4-one]	30

More lines, now with the values ahead:

EC50 [nM]	SMILES
12	CN(CCO)C1=NC(=O)/C(=C/c2ccc3c(cnn3Cc3ccc(Cl)cc3C(F)(F)F)c2)S1 [Compound 30, 5-[1-(4-Chloro-2-trifluoromethyl-benzyl)-1H-indazol-5-ylmethylene]-2-[(2-hydroxy-ethyl)-methyl-amino]-thiazol-4-one]
3.6	COc1ccc(Cn2ncc3cc(/C=C4\SC(N(C)CC(O)CO)=NC4=O)ccc32)c(C(F)(F)F)c1 (stereo not drawn) [Compound 13, 2-[(2,3-Dihydroxy-propyl)-methyl-amino]-5-[1-(4-methoxy-2-trifluoromethyl-benzyl)-1H-indazol-5-ylmethylene]-thiazol-4-one]
15	CN(C1=NC(=O)/C(=C/c2ccc3c(cnn3Cc3ccc(Cl)cc3C(F)(F)F)c2)S1)[C@@H]1CCN(CC(N)=O)C1 [Compound 57, 2-[(3R)-3-({5-[1-(4-Chloro-2-trifluoromethyl-benzyl)-1H-indazol-5-ylmethylene]-4-oxo-4,5-dihydro-thiazol-2-yl}-methyl-amino)-pyrrolidin-1-yl]-acetamide]
32	COC[C@@H]1CC(N(C)C2=NC(=O)/C(=C/c3ccc4c(cnn4Cc4ccc(C(F)(F)F)cc4C(F)(F)F)c3)S2)CN1C (stereo partly drawn) [Compound 44, 5-[1-(2,4-Bis-trifluoromethyl-benzyl)-1H-indazol-5-ylmethylene]-2-[(5-methoxymethyl-1-methyl-pyrrolidin-3-yl)-methyl-amino]-thiazol-4-one]
520	CN(CC(O)CO)C1=NC(=O)/C(=C/c2ccc3c(cnn3Cc3ccc(S(C)(=O)=O)cc3C(F)(F)F)c2)S1 (stereo not drawn) [Compound 8, 2-[(2,3-Dihydroxy-propyl)-methyl-amino]-5-[1-(4-methanesulfonyl-2-trifluoromethyl-benzyl)-1H-indazol-5-ylmethylene]-thiazol-4-one]
37	CN(C1=NC(=O)/C(=C/c2ccc3c(cnn3Cc3ccc(C(F)(F)F)cc3C(F)(F)F)c2)S1)C1CCNCC1 [Compound 17, 5-[1-(2,4-Bis-trifluoromethyl-benzyl)-1H-indazol-5-ylmethylene]-2-(methyl-piperidin-4-yl-amino)-thiazol-4-one]
31	CN(C[C@H](O)c1ccc(O)cc1)C1=NC(=O)/C(=C/c2ccc3c(cnn3Cc3ccc(Cl)cc3C(F)(F)F)c2)S1 [Compound 31, (R)-5-[1-(4-Chloro-2-trifluoromethyl-benzyl)-1H-indazol-5-ylmethylene]-2-{[2-hydroxy-2-(4-hydroxy-phenyl)-ethyl]-methyl-amino}-thiazol-4-one]
27	CN(C1=NC(=O)/C(=C/c2ccc3c(cnn3Cc3ccc(C(F)(F)F)cc3C(F)(F)F)c2)S1)[C@H]1C[C@@H](CO)N(CC(N)=O)C1 [Compound 59, 2-[4-({5-[1-(2,4-Bis-trifluoromethyl-benzyl)-1H-indazol-5-ylmethylene]-4-oxo-4,5-dihydro-thiazol-2-yl}-methyl-amino)-2-hydroxymethyl-pyrrolidin-1-yl]-acetamide]
21	CN(CCN1CCOCC1)C1=NC(=O)/C(=C/c2ccc3c(cnn3Cc3ccc(C(F)(F)F)cc3C(F)(F)F)c2)S1 [Compound 27, 5-[1-(2,4-Bis-trifluoromethyl-benzyl)-1H-indazol-5-ylmethylene]-2-[methyl-(2-morpholin-4-yl-ethyl)-amino]-thiazol-4-one]
11	CCN(CC)CCN(C)C1=NC(=O)/C(=C/c2ccc3c(c2)c(I)nn3Cc2ccc(C(F)(F)F)cc2C(F)(F)F)S1 [Compound 51, 5-[1-(2,4-Bis-trifluoromethyl-benzyl)-3-iodo-1H-indazol-5-ylmethylene]-2-[(2-diethylamino-ethyl)-methyl-amino]-thiazol-4-one]
24	CN(C1=NC(=O)/C(=C/c2ccc3c(cnn3Cc3ccc(Cl)cc3C(F)(F)F)c2)S1)[C@@H]1CN[C@H](CO)C1 (stereo in doubt) [Compound 42, 5-[1-(4-Chloro-2-trifluoromethyl-benzyl)-1H-indazol-5-ylmethylene]-2-[(5-hydroxymethyl-pyrrolidin-3-yl)-methyl-amino]-thiazol-4-one]
